# In patent US9809634B2, “Composition comprising branched multipeptide vaccine and vaccine comprising the same” (INDUSTRY FOUNDATION OF CHONNAM NATIONAL UNIVERSITY, priority 2015, dated 2017):
# Test system: T2 cell line expressing HLA-A2
# Assay: Binding capacity to T-lymphocyte of each subsequence residue (T2 cells, HLA-A2-FITC staining, flow cytometry)
# Format: cell-based, human
# Details: T2 cells cultured overnight with peptide and beta2-microglobulin; FIG. 3; compared with the other subsequence residues of the same tumor antigen
# Experimental: The binding capacity to T-lymphocyte, of each of the subsequence residues shown in Table 1 above, was measured (FIG. 3).
# Measurement of binding capacity between T-lymphocyte and each of the subsequence residues
# T2 cell line (Korea Cell Line Bank) is […] expressing HLA-A2. The peptide and beta2-microglobulin on T2 cells were cultured overnight, and the T2 cells were stained with antihuman HLA-A2-FITCmAb, and analyzed by a FACS Caliber flow cytometer and WinMDI software.
# The binding capacity of subsequence residue was calculated from mean fluorescence with the peptide and mean fluorescence without the peptide according to the following Equation: […]
row,Sequence,binding capacity to T-lymphocyte
1,LLLFGLLGV (Peptide CD99-9) [SEQ ID NO: 10],most excellent
2,LMLGEFLKL [SEQ ID NO: 9],most excellent
